The values that follow are results of earlier work, collected in US20190209552A1, “PHARMACEUTICAL COMPOSITION OF [ (3-HYDROXY-4 -PYRON-2-YL) METHYL] -AMINE DERIVATIVES AND DNA DEMETHYLATING AGENTS AND THEIR USE AS ANTI-NEOPLASTIC DRUGS” (UNIVERSITA' DEGLI STUDI DI URBINO "CARLO BO", priority 2016, published 2019).

SMILES strings stand for the structures.

The subject of data set [1] is Ewing's sarcoma.
Data set [2] deals with Ewing's sarcoma. This is another data set of the same source.

In the case of `CN1CCN(Cc2occc(=O)c2O)CCN(C)CCN(Cc2occc(=O)c2O)CC1` [Maltonis, 4(N), 10(N)-bis [(3-hydroxy-4-Pyron-2-yl)methyl]-1,7-dimethyl-1,4,7,10tetraazacyclododecane], the efficacy in vitro result in data set [1] is “effective”. For the same compound, in data set [2], the efficacy in vivo result is reported as “effective”.
